{
  "source": "patent US20260182575A1",
  "about": "“MOLECULES HAVING PESTICIDAL UTILITY AND INTERMEDIATES AND PROCESSES RELATED THERETO” (CORTEVA AGRISCIENCE LLC, priority 2022, published 2026)",
  "type_in_all_cases": "in vivo",
  "key": {"[1]": {"tested_on": "Beet Armyworm (Spodoptera exigua, LAPHEG, BAW)", "assay": "Bioassay 7: beet armyworm, artificial diet, 96 well plate", "description": "(§1) The test solutions were tested against CEW, FAW, BAW, and SBL using the following procedure: an artificial lepidopteran diet (Multispecies Lepidopteran Diet, Southland Products) was distributed in 96 well plate. Twenty μL of test solution was pipetted onto a cell in the bioassay plate. […] Each treatment was replicated 5 times for each species. Approximately five first instar CEW, FAW, BAW, or SBL larva were placed on top of the diet in each cell and was contained with a clear perforated adhesive lid. Test trays were held at approximately 25° C. and ambient relative humidity prior to grading. After five days, the number of cells where all the larvae were dead were recorded as 100% and averaged across all replicates; then the percent control was measured using Abbott's correction formula (W. S. Abbott, J. Econ. Entomol. 18 (1925), pp. 265-267) as follows:\n(§2) where X=No. of live larvae on solvent check and Y=No. of live larvae on treated diet. In Table 7 the “Expected % Control” was calculated using the method described in Colby S. R., Weeds, 1967, 15, 20-22. Bioassay 8: Western Corn Rootworm (Diabrotica virgifera virgifera, DIABVI, “WCR”)"}, "[2]": {"tested_on": "Soybean Looper (Chrysodeixis includens, PSEPIN, SBL)", "assay": "Bioassay 7: soybean looper, artificial diet, 96 well plate", "conditions": "CL", "description": "as §1, §2"}, "[3]": {"tested_on": "Fall Armyworm (Spodoptera frugiperda, LAPHFR, FAW)", "assay": "Bioassay 7: fall armyworm, artificial diet, 96 well plate", "conditions": "AI alone at 0.4 wt %", "description": "as §1, §2"}, "[4]": {"tested_on": "Corn Earworm (Helicoverpa zea, HELIZE, CEW)", "assay": "Bioassay 7: corn earworm, artificial diet, 96 well plate", "description": "as §1, §2"}},
  "data": [
    {"compound": "CC(C)c1ccc(Cl)cc1CN(C(=O)c1c(C(F)F)nn(C)c1F)C1CC1", "note": "[Isoflucypram]", "values": [
      {"measurement": "Average % Control AI", "setting": "[1]; AI alone at 0.4 wt %", "value": 0.0, "unit": "%"},
      {"measurement": "Average % Control AI", "setting": "[2]; AI alone at 0.4 wt %", "value": 0.0, "unit": "%"}
    ]},
    {"compound": "CC(C)C1CCC(Cc2ccc(Cl)cc2)C1(O)Cn1cncn1", "note": "(stereo not shown) [Ipconazole]", "values": [
      {"measurement": "Average % Control AI", "setting": "[3]", "value": 0.0, "unit": "%"},
      {"measurement": "Average % Control AI", "setting": "[1]; AI alone at 0.4 wt %", "value": 0.0, "unit": "%"},
      {"measurement": "Average % Control AI", "setting": "[4]; AI alone at 0.4 wt %", "value": 0.0, "unit": "%"}
    ]},
    {"compound": "COC(=O)N(OC)c1ccccc1COc1ccn(-c2ccc(Cl)cc2)n1", "note": "[Pyraclostrobin]", "values": [
      {"measurement": "Average % Control AI", "setting": "[2]; AI alone at 0.04 wt %", "value": 0.0, "unit": "%"},
      {"measurement": "Average % Control AI", "setting": "[4]; AI alone at 0.04 wt %", "value": 0.0, "unit": "%"}
    ]},
    {"compound": "COc1ccc(Cl)c(S(=O)(=O)NC(=O)c2cn3cc(C(F)(F)F)cc(Cl)c3n2)c1", "note": "[Fluazaindolizine]", "values": [
      {"measurement": "Average % Control AI", "setting": "[3]", "value": 0.0, "unit": "%"},
      {"measurement": "Average % Control AI", "setting": "[2]; AI alone at 0.4 wt %", "value": 0.0, "unit": "%"},
      {"measurement": "Average % Control AI", "setting": "[4]; AI alone at 0.4 wt %", "value": 0.0, "unit": "%"}
    ]},
    {"compound": "CO/C=C(/C(=O)OC)c1ccccc1COc1cccc(C(F)(F)F)n1", "note": "[Picoxystrobin]", "values": [
      {"measurement": "Average % Control AI", "setting": "[1]; AI alone at 0.04 wt %", "value": 0.0, "unit": "%"},
      {"measurement": "Average % Control AI", "setting": "[2]; AI alone at 0.04 wt %", "value": 0.0, "unit": "%"},
      {"measurement": "Average % Control AI", "setting": "[4]; AI alone at 0.04 wt %", "value": 0.0, "unit": "%"}
    ]},
    {"compound": "Trifloxystrobin", "values": [
      {"measurement": "Average % Control AI", "setting": "[3]", "value": 16.6, "unit": "%"},
      {"measurement": "Average % Control AI", "setting": "[1]; AI alone at 0.4 wt %", "value": 20.0, "unit": "%"},
      {"measurement": "Average % Control AI", "setting": "[4]; AI alone at 0.4 wt %", "value": 0.0, "unit": "%"}
    ]},
    {"compound": "CCNc1nc(CC)c(C(=O)NC(C#N)c2cccs2)s1", "note": "(stereo not shown) [Ethaboxam]", "values": [
      {"measurement": "Average % Control AI", "setting": "[3]", "value": 0.0, "unit": "%"},
      {"measurement": "Average % Control AI", "setting": "[2]; AI alone at 0.4 wt %", "value": 0.0, "unit": "%"},
      {"measurement": "Average % Control AI", "setting": "[4]; AI alone at 0.4 wt %", "value": 12.5, "unit": "%"}
    ]}
  ]
}
